This note sets out measurements from patent US12102648B2, “Orally-bioavailable nucleoside analogs” (priority 2021, dated 2024).

Broadly, the Papp A→B is how fast a substance crosses the layer from the apical side. Usually Papp B→A stands for the apparent permeability from the basolateral to the apical side of a cell layer.

A short description of the data set: in vitro. The format is in vitro ADME. Conditions: human. As to the method:
The bidirectional permeability of compounds across the Caco-2 cell monolayer was assessed. The Caco-2 model is a widely used in vitro model for small intestinal absorption and potential for efflux.
Cell culture. Caco-2 cells were grown in DMEM supplemented with 10% fetal bovine serum (FBS), 1% Penicillin-Streptomycin and 1% MEM NEAA. The cells were incubated at 37° C., 5% CO2/95% air and saturated humidity. After reaching 80-90% confluency, the cells were gently detached with trypsin. Cells at passage 39 were seeded on the 24-well BD insert system at the density of 8×10^4 cells/cm^2 and cultured for 19 days with medium changed every 2-3 days. Measure the transepithelial electrical resistance (TEER) value of each well. The wells can be used only when their TEER values are greater than 600 Ohms/cm^2.
Transport assay. After removing the cell culture medium from the 24-well insert plate, the cells were rinsed with warm transport buffer. Appropriate dosing and receiving solutions were applied to the donor and receiver chambers to initiate the transport assay in apical to basolateral (A to B) or basolateral to apical (B to A) directions ([…] for apical and basolateral wells, respectively). Duplicate wells in each direction were used for the test compound and control compound. The plate was incubated in CO2 incubator at 37° C., with 5% CO2/95% air and saturated humidity without shaking. The sample after 10-minute incubation was used as the T0 sample, and the sample after 90-minute incubation was used as the T90 sample. To and T90 samples were collected from the donor and receiver side of each well at the designed timepoint, mixed with the transport buffer and acetonitrile/MeOH (1:1, v/v) and the internal standard for LC/MS/MS analysis. All samples were vortexed and centrifuged at 4000 rpm at 4° C. for 15 minutes, diluted with pure water and stored at 4° C. before bioanalysis by LC/MS/MS.
Sample analysis. The concentrations of test compounds and control compounds in Caco-2 cells were quantitatively determined by LC/MS/MS method after protein precipitation.
Calculations. The apparent permeability (Papp, cm/s), efflux ratio (ER) and recovery parameters were calculated for Caco-2 drug transport assay using the following equations:
[formula] [formula] where VR is the solution volume in the receiver chamber (0.4 mL on the apical side, 1.2 mL on the basolateral side); Area is the surface area for the insert membrane, i.e., 0.3 cm^2 for the area of the monolayer; Time is incubation time, expressed in seconds, i.e., 5400 s (90 min) for the current experiment; Co is the initial concentration of test compound or peak area ratio of control compounds in the donor chamber (μM); VD is the volume in the donor chambers (0.4 mL on the apical side, 1.2 mL on the basolateral side); CD and CR are the final concentrations of test compounds or peak area ratio of control compounds in donor and receiver chambers, respectively.
Compounds with Papp<1.0 are classified as low permeability, Papp between 1-10 are classified as medium permeability, and Papp≥10 are classified as high permeability. An efflux ratio (ER)>2 indicates the compounds are potential substrates for intestinal cell efflux transporters.

The mark [1] stands for this setting: Caco-2 monolayer, apical to basolateral, 90-minute incubation, read-out: Papp, A-B.
[2] abbreviates: Caco-2 monolayer, basolateral to apical, 90-minute incubation, read-out: Papp, B-A.
Where [3] appears, read: Caco-2 monolayer, ER>2 indicates potential efflux transporter substrate, read-out: ER (efflux ratio).

Read-outs that look alike come from different tables or passages of the source.

Consider `CC(C)[C@H](N)C(=O)O[C@H]1[C@@H](OC(=O)[C@@H](N)C(C)C)[C@](C#N)(c2ccc3c(N)ncnn23)O[C@@H]1COC(=O)Cc1ccccc1` [Compound 351, (2R,3R,4R,5R)-2-(4-aminopyrrolo[2,1-f][1,2,4]triazin-7-yl)-2-cyano-5-((2-phenylacetoxy)methyl)tetrahydrofuran-3,4-diyl (2S,2'S)-bis(2-amino-3-methylbutanoate)], for which the Papp A→B at 90 min under setting [1] was found to be 0.17 ×10⁻⁶ cm/s. The Papp B→A at 90 min under setting [2] is 0.92 ×10⁻⁶ cm/s. Besides, under setting [3], the efflux ratio at 90 min stood at 5.5.

On to `N#C[C@@]1(c2ccc3c(N)ncnn23)O[C@H](COC(=O)CC2CCC(C(F)(F)F)CC2)[C@@H](OC(=O)CC2CCC(C(F)(F)F)CC2)[C@H]1O` (stereo partly drawn) [Compound 271, (2R,3S,4R,5R)-5-(4-aminopyrrolo[2,1-f][1,2,4]triazin-7-yl)-5-cyano-4-hydroxy-2-((2-(4-(trifluoromethyl)cyclohexyl)acetoxy)methyl)tetrahydrofuran-3-yl 2-(4-(trifluoromethyl)cyclohexyl)acetate], for which, under “Caco-2”, the Papp A→B at 90 min was found to be 0.06 ×10⁻⁶ cm/s, the Papp B→A at 90 min was found to be 0.52 ×10⁻⁶ cm/s and the efflux ratio at 90 min worked out at 8.7.

As for `CC(C)[C@H](N)C(=O)Nc1ncnn2c([C@]3(C#N)O[C@H](CO)[C@@H](OC(=O)CC4CCCCC4)[C@H]3O)ccc12` [Compound 139, (2R,3S,4R,5R)-5-(4-((S)-2-amino-3-methylbutanamido)pyrrolo[2,1-f][1,2,4]triazin-7-yl)-5-cyano-4-hydroxy-2-(hydroxymethyl)tetrahydrofuran-3-yl 2-cyclohexylacetate], for the setting “Caco-2”, the Papp A→B at 90 min was found to be 0.18 ×10⁻⁶ cm/s, the Papp B→A at 90 min was 6.1 ×10⁻⁶ cm/s and the efflux ratio at 90 min stood at 34.

For `CC(C)C(=O)O[C@H]1[C@@H](O)[C@](C#N)(c2ccc3c(N)ncnn23)O[C@@H]1COC(=O)[C@@H](N)C(C)C` [Compound 38, ((2R,3S,4R,5R)-5-(4-aminopyrrolo[2,1-f][1,2,4]triazin-7-yl)-5-cyano-4-hydroxy-3-(isobutyryloxy)tetrahydrofuran-2-yl)methyl L-valinate], for the setting “Caco-2”, the Papp A→B at 90 min is 0.22 ×10⁻⁶ cm/s, the Papp B→A at 90 min is 3.3 ×10⁻⁶ cm/s and the efflux ratio at 90 min is 15.

As for `CC(C)[C@H](N)C(=O)O[C@H]1[C@@H](O)[C@](C#N)(c2ccc3c(N)ncnn23)O[C@@H]1COC(=O)CC1CCCCC1` [Compound 27, (2R,3S,4R,5R)-5-{4-aminopyrrolo[2,1-f][1,2,4]triazin-7-yl}-5-cyano-2-{[(2-cyclohexylacetyl)oxy]methyl}-4-hydroxyoxolan-3-yl (2S)-2-amino-3-methylbutanoate], for the setting “Caco-2”, the Papp A→B at 90 min was 0.1 ×10⁻⁶ cm/s, the Papp B→A at 90 min was found to be 9.9 ×10⁻⁶ cm/s and the efflux ratio at 90 min is 100.

With `CNc1nc(N)nc2c1ncn2[C@@H]1O[C@H](COC(=O)C(C)C)[C@@H](OC(=O)Cc2ccccc2)[C@@]1(C)F` [Compound 211, ((2R,3R,4R,5R)-5-(2-amino-6-(methylamino)-9H-purin-9-yl)-4-fluoro-4-methyl-3-(2-phenylacetoxy)tetrahydrofuran-2-yl)methyl isobutyrate], the Papp A→B at 90 min under setting [1] came to 6.2 ×10⁻⁶ cm/s. The Papp B→A at 90 min under setting [2] was found to be 4.8 ×10⁻⁶ cm/s. Besides, under setting [3], the efflux ratio at 90 min was 0.8.

As for `CC(=O)O[C@H]1[C@@H](O)[C@](C#N)(c2ccc3c(N)ncnn23)O[C@@H]1COC(=O)CC1CCCCC1` [Compound 29, ((2R,3S,4R,5R)-3-acetoxy-5-(4-aminopyrrolo[2,1-f][1,2,4]triazin-7-yl)-5-cyano-4-hydroxytetrahydrofuran-2-yl)methyl 2-cyclohexylacetate], under “Caco-2”, the Papp A→B at 90 min worked out at 2 ×10⁻⁶ cm/s, the Papp B→A at 90 min was 2.1 ×10⁻⁶ cm/s and the efflux ratio at 90 min stood at 1.1.
